Results from US6572603B1, “Vitamin d solution holder and containers for transfusions” (Otsuka Pharmaceutical Factory, Inc., priority 1998, dated 2003).

Legend:
Type in all cases: physicochemical
[1] = Vitamin content of solution (C) in polyolefin holders after autoclaving and storage at 40° C. for four months, measured through HPLC (Example 3)
Procedure: Solution (C) (4 ml) prepared in Example 1 was charged into each of holders made of the materials shown in Table 3, to thereby obtain a holder which contains a solution of vitamin D3. Each of these holders containing a solution of vitamin D3 was subjected to autoclaving and wrapped in a nylon multi-layered-film bag together with a deoxidizing agent (trade name: Ageless, product of Mitsubishi Gas Chem. Co., Inc.). The thus-wrapped holders were allowed to stand at 40° C. for four months. Thereafter, the content of each vitamin in each holder was measured through HPLC. The content of each vitamin is represented by a percentage (%) of the initially incorporated amount.

[2] = Vitamin contents in transfusion fluid containers of Examples 4 and 5 after autoclaving and 40° C. four-month storage, bioassay (vitamin B12, biotin) or HPLC (other vitamins)
Procedure: In a holder produced from a three-layered film (the thickness of each layer: 10 μm) in which the outer and the inner layers are made of polyethylene and the intermediate layer is made of ethylene.tetracyclododecene copolymer (trade name: Apel, product of Mitsui Chemicals, Inc.), solution (C) (4 ml) was charged and the inlet was melt-sealed. In a two-compartment container, the prepared holder was attached to one of the compartments. […] The above-described transfusion fluid containers in Examples 4 and 5 were allowed to stand at 40° C. for four months after autoclaving. Thereafter, the contents of vitamins in the containers were measured through a bioassay according to Pharmacopoeia of Japan (for vitamin B12 and biotin) or through HPLC (for other vitamins). The content of each vitamin is represented by a percentage (%) of the initially incorporated amount.

[3] = Vitamin content of transfusion products of Examples 1 and 2 after four-month storage
Procedure: In a holder produced from a polyethylene film having a thickness of 30 μm, solution (C) (4 ml) was charged and the inlet was melt-sealed, to thereby obtain a holder for the solution containing vitamin D3. The surface area of a solution-holding portion of the holder was 16 cm^2 and the volume of polyethylene constituting the solution-holding portion was 0.048 cm^3.
In a polyethylene-made two-compartment container (see FIG. 2), the above-described holder for vitamin D3 solution had been previously attached to one of the compartments. Solution (A) (600 ml) and solution (B) (300 ml) were charged into two compartments separately in an atmosphere replaced with nitrogen, and the container was sealed. Subsequently, the container was subjected to autoclaving through a customary method, to thereby obtain a transfusion product. The transfusion product was wrapped in a light-shielding nylon multi-layer bag together with a deoxidizing agent (trade name: Ageless, product of Mitsubishi Gas Chem. Co., Inc.).
In the same manner as in Example 1, solution (A), solution (B), and solution (C), having the compositions shown in Table 2, were prepared, and these solutions were charged into a holder and two compartments of a transfusion fluid container as described in Example 1. Subsequently, the container was subjected to autoclaving, to thereby obtain a transfusion product. […]

Question: Which “Vitamin content (%) of initially incorporated amount” value (“Vitamin content (%)” below) ([1]; holder No. 1, polyethylene, 30 μm, resin 7.4 cm^3 per μmol vitamin D, 40° C., 4 months) does the source give for `C=C1CC[C@H](O)C/C1=C/C=C1\CCC[C@]2(C)[C@@H]([C@H](C)CCCC(C)C)CC[C@@H]12` [Vitamin D3, cholecalciferol] here?
Answer: 86.2%

Question: What about the “Vitamin content (%)” value ([1]; holder No. 1, polyethylene, 30 μm, resin 7.4 cm^3 per μmol vitamin D, after sterilization) of the same compound?
Answer: 95.4%

Question: What about the “Vitamin content (%)” value ([1]; holder No. 2, polyethylene, 100 μm, resin 18.5 cm^3 per μmol vitamin D, 40° C., 4 months) of the same compound?
Answer: 81.3%

Question: What about the “Vitamin content (%)” value ([1]; holder No. 2, polyethylene, 100 μm, resin 18.5 cm^3 per μmol vitamin D, after sterilization) of the same compound?
Answer: 94.6%

Question: And the “Vitamin content (%)” value ([1]; holder No. 3, polypropylene, 30 μm, resin 7.4 cm^3 per μmol vitamin D, 40° C., 4 months)?
Answer: 85.8%

Question: And the “Vitamin content (%)” value ([1]; holder No. 3, polypropylene, 30 μm, resin 7.4 cm^3 per μmol vitamin D, after sterilization)?
Answer: 96.2%

Question: What about the “Vitamin content (%)” value ([1]; holder No. 4, polyethylene, 250 μm, resin 123.2 cm^3 per μmol vitamin D, 40° C., 4 months) of the same compound?
Answer: 66.3%

Question: What about the “Vitamin content (%)” value ([1]; holder No. 4, polyethylene, 250 μm, resin 123.2 cm^3 per μmol vitamin D, 40° C., 4 months, listed as vitamin D3) of the same compound?
Answer: fell outside the acceptable range

Question: What about the “Vitamin content (%)” value ([1]; holder No. 4, polyethylene, 250 μm, resin 123.2 cm^3 per μmol vitamin D, after sterilization) of the same compound?
Answer: 89.8%

Question: What about the “Vitamin content (%)” value ([1]; holder No. 5, polypropylene, 250 μm, resin 123.2 cm^3 per μmol vitamin D, 40° C., 4 months) of the same compound?
Answer: 69.1%

Question: And the “Vitamin content (%)” value ([1]; holder No. 5, polypropylene, 250 μm, resin 123.2 cm^3 per μmol vitamin D, 40° C., 4 months, listed as vitamin D3)?
Answer: fell outside the acceptable range

Question: And the “Vitamin content (%)” value ([1]; holder No. 5, polypropylene, 250 μm, resin 123.2 cm^3 per μmol vitamin D, after sterilization)?
Answer: 87.5%

Question: And the “Vitamin content, percentage (%) of the initially incorporated amount” value (shortened to “Vitamin content, percentage (%)”) ([2]; Example 4 transfusion fluid container, 40° C., 4 months)?
Answer: 88.7%

Question: And the “Vitamin content, percentage (%)” value ([2]; Example 4 transfusion fluid container, immediately after sterilization)?
Answer: 89.8%

Question: And the “Vitamin content, percentage (%)” value ([2]; Example 5 transfusion fluid container, 40° C., 4 months)?
Answer: 89.6%

Question: And the “Vitamin content, percentage (%)” value ([2]; Example 5 transfusion fluid container, immediately after sterilization)?
Answer: 90.1%

Question: What about the “Vitamin content after storage (acceptable range ≧80%)” value [3] of the same compound?
Answer: ≥ 80%
